# Earlier results in article PMC2228077, “The bioavailability of oral GI147211 (GG211), a new topoisomerase I inhibitor” (British Journal of Cancer, 1997).
# “And” between values parts separate entries of the source, which are not always exact repeats. Equal entries are not always repeated.
# Columns and labels:
# [1] = human, in vivo, po; cited from earlier work
# [2] = set-up: method as in Kuhn et al, 1995; Schellens et al, 1996; settings: oral topotecan; ref Kuhn et al, 1995; Schellens et al, 1996; cited from earlier work
# [3] = set-up: method as in Rowinsky et al, 1992; Verweij et al, 1993; settings: ref Rowinsky et al, 1992; Verweij et al, 1993; cited from earlier work
Structure (SMILES),patients who developed CTC grade >= II diarrhoea [1],bioavailability (variable systemic exposure) [2],dose-limiting toxicity [3]
CC[C@@]1(O)C(=O)OCc2c1cc1n(c2=O)Cc2cc3c([N+](=O)[O-])cccc3nc2-1 [9-nitro-camptothecin],33%,,
CC[C@@]1(O)C(=O)OCc2c1cc1n(c2=O)Cc2cc3c(CN(C)C)c(O)ccc3nc2-1 [topotecan],,32% and 44%,cumulative myelosuppression
